In US20160257697A1, “THIOPHENE-SUBSTITUTED TETRACYCLIC COMPOUNDS AND METHODS OFUSE THEREOF FOR THE TREATMENT OF VIRAL DISEASES” (priority 2013, published 2016):
Where two headings read alike, the source gives them in different places.

What was measured:
Assay in all cases: microbe, parasite or virus in culture
Type in all cases: cell-based, Hepatitis C virus (HCV)
[1] = system: HCV replicon 1AQ30D; conditions: Replicon Assay B
[2] = system: HCV replicon 1B; conditions: Replicon Assay B
[3] = system: HCV replicon 2B; conditions: Replicon Assay A
Procedure, shortened: (§1)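 Read-out is replicon RNA per cell by real-time RT-PCR, normalised to cyclophilin mRNA amplified in the same well. Cells were exposed to compound for 3 days at 2000 cells/well in medium with 5% fetal bovine serum and 0.5% DMSO.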

[4] = system: HCV replicon 1AY93H; conditions: Replicon Assay A
Procedure, shortened: as §1

[5] = system: HCV replicon 1A; conditions: Replicon Assay A
Procedure, shortened: as §1

[6] = read-out: 1A Q30D IC50, HCV replicon 1A Q30D
[7] = read-out: 2B IC50, HCV replicon 2B
[8] = read-out: 1A Y93H IC50, HCV replicon 1A Y93H
[9] = read-out: 1A Q30D IC50, replicon 1AQ30D
[10] = read-out: 1A Y93H IC50, replicon 1AY93H
[11] = Hepatitis C virus, read-out: 1A Q30D IC50 (nM), replicon 1AQ30D
[12] = Hepatitis C virus, read-out: 1A Q30D IC50, HCV replicon 1A Q30D
[13] = Hepatitis C virus, HCV replicon 1B
[14] = Hepatitis C virus, HCV replicon 1A
[15] = replicon 1AQ30D, read-out: 1A Q30D IC50
[16] = replicon 1AY93H, read-out: 1A Y93H IC50

Row | Structure (SMILES) | IC50 [3, 7] | IC50 [4, 8] | IC50 ([5]; HCV replicon 1A) | IC50 ([3]; read-out: 2B IC50, replicon 2B) | IC50 [4, 10] | IC50 ([5]; replicon 1A) | IC50 ([2]; Hepatitis C virus, replicon 1B) | also measured
1 | COC(=O)NC(C(=O)N1[C@@H]2C[C@@H]2C[C@H]1c1ncc(-c2ccc3c(c2)cc2n3C(c3ccc(CC4CC4)s3)Oc3cc(-c4cnc([C@@H]5CCCN5C(=O)[C@@H](NC(=O)OC)C(C)C)[nH]4)cc(F)c3-2)[nH]1)C1CCOC(C)(C)C1 (single isomer, unassigned) [Compound 418] | 0.16 nM | 0.093 nM | 0.0027 nM | – | – | – | – | IC50 [1, 6]: 0.862 nM; IC50 ([2]; HCV replicon 1B): 0.0027 nM
2 | COC(=O)N[C@H](C(=O)N1CCC[C@H]1c1ncc(-c2ccc3c(c2)OC(c2cc4ccccc4s2)n2c-3cc3cc(-c4cnc([C@@H]5CCCN5C(=O)[C@@H](NC(=O)OC)C5CCOCC5)[nH]4)ccc32)[nH]1)C1CCOCC1 (single isomer, unassigned) [Compound 263] | – | – | – | 0.005 nM | 0.003 nM | 0.0036 nM | – | IC50 [1, 9]: 0.012 nM; IC50 ([2]; replicon 1B): 0.0034 nM
3 | COC(=O)NC(C(=O)N1CCC[C@H]1c1ncc(-c2ccc3c(c2)cc2n3C(c3ccc(C4CCCC4)s3)Oc3cc(-c4cnc([C@@H]5CCCN5C(=O)[C@@H](NC(=O)OC)C(C)C)[nH]4)cc(F)c3-2)[nH]1)C1C[C@@H](C)O[C@@H](C)C1 (single isomer, unassigned) [Compound 658] | 0.0098 nM | 0.0089 nM | 0.0032 nM | – | – | – | – | IC50 [1, 6]: 0.0643 nM; IC50 ([2]; HCV replicon 1B): 0.0084 nM
4 | COC(=O)NC(C(=O)N1CCC[C@H]1c1ncc(-c2ccc3c(c2)cc2n3C(c3ccc(C(F)F)s3)Oc3cc(-c4cnc([C@@H]5CCCN5C(=O)[C@@H](NC(=O)OC)C(C)C)[nH]4)cc(F)c3-2)[nH]1)C1C[C@@H](C)O[C@@H](C)C1 (single isomer, unassigned) [Compound 266] | – | – | – | 0.008 nM | 0.003 nM | – | 0.0015 nM | IC50 [1, 11]: 0.051 nM; IC50 ([5]; Hepatitis C virus, replicon 1A): 0.0011 nM
5 | CCc1ccc(C2Oc3cc(-c4cnc([C@@H]5CCCN5C(=O)[C@@H](NC(=O)OC)C(C)C)[nH]4)cc(F)c3-c3cc4cc(-c5cnc([C@@H]6C[C@H]7C[C@H]7N6C(=O)C(NC(=O)OC)C6CCOC(C)(C)C6)[nH]5)ccc4n32)s1 (single isomer, unassigned) [Compound 200] | – | – | – | 0.014 nM | 0.002 nM | 0.0021 nM | 0.003 nM | IC50 [1, 9]: 0.036 nM
6 | CCc1ccc(C2Oc3cc(-c4cnc([C@@H]5CCCN5C(=O)[C@@H](NC(=O)OC)C(C)C)[nH]4)ccc3-c3c(F)c4cc(-c5cnc([C@@H]6CCCN6C(=O)[C@@H](NC(=O)OC)C(C)C)[nH]5)ccc4n32)s1 (single isomer, unassigned) [Compound 602] | 0.143 nM | 0.066 nM | 0.001 nM | – | – | – | – | IC50 [1, 12]: 0.597 nM; IC50 [2, 13]: 0.0017 nM
7 | COC(=O)N[C@H](C(=O)N1CCC[C@H]1c1ncc(-c2cc(F)c3c(c2)OC(c2cc4c(s2)CCC4)n2c-3cc3cc(-c4cnc([C@@H]5C[C@H]6C[C@H]6N5C(=O)[C@@H](NC(=O)OC)C5C[C@@H](C)O[C@@H](C)C5)[nH]4)ccc32)[nH]1)C(C)C (single isomer, unassigned) [Compound 553] | 0.218 nM | 0.0396 nM | 0.0441 nM | – | – | – | – | IC50 [1, 6]: 0.708 nM; IC50 ([2]; HCV replicon 1B): 0.0482 nM
8 | CCc1ccc(C2Oc3cc(-c4cnc([C@@H]5CCCN5C(=O)C(NC(=O)OC)C5C[C@@H](C)O[C@@H](C)C5)[nH]4)cc(F)c3-c3cc4cc(-c5cnc([C@@H]6CCCN6C(=O)C(NC(=O)OC)C6C[C@@H](C)O[C@@H](C)C6)[nH]5)ccc4n32)s1 (single isomer, unassigned) [Compound 300] | – | – | – | 0.003 nM | 0.002 nM | 0.0024 nM | 0.0032 nM | IC50 [1, 11]: 0.006 nM
9 | COC(=O)N[C@H](C(=O)N1CCC[C@H]1c1ncc(-c2cc(F)c3c(c2)OC(c2ccc(C4CC4)s2)n2c-3cc3cc(-c4cnc([C@@H]5C[C@@H](F)CN5C(=O)[C@@H](NC(=O)OC)C(C)C)[nH]4)ccc32)[nH]1)C(C)C (stereo partly shown) [Compound 757] | – | – | – | – | – | – | – | IC50 [1, 12]: 2.85 nM; IC50 [2, 13]: 0.003 nM; IC50 ([3]; Hepatitis C virus, read-out: 2B IC50, HCV replicon 2B): 2.4 nM; IC50 ([4]; Hepatitis C virus, read-out: 1A Y93H IC50, HCV replicon 1A Y93H): 0.013 nM; IC50 [5, 14]: 0.0027 nM
10 | COC(=O)NC(C(=O)N1CCC[C@H]1c1ncc(-c2ccc3c(c2)cc2n3C(c3ccc(CC4CC4)s3)Oc3cc(-c4cnc([C@@H]5CCCN5C(=O)[C@@H](NC(=O)OC)C(C)C)[nH]4)cc(F)c3-2)[nH]1)C1CCO[C@H](C)C1 (single isomer, unassigned) [Compound 367] | – | – | – | 0.0223 nM | 0.0343 nM | – | 0.0034 nM | IC50 [1, 9]: 0.361 nM; IC50 ([5]; Hepatitis C virus, replicon 1A): 0.0021 nM
11 | COC(=O)N[C@H](C(=O)N1CCC[C@H]1c1ncc(-c2cc(F)c3c(c2)OC(c2ccc(C#N)s2)n2c-3cc3cc(-c4cnc([C@@H]5CCCN5C(=O)[C@@H](NC(=O)OC)C(C)C)[nH]4)ccc32)[nH]1)C(C)C (single isomer, unassigned) [Compound 18] | – | – | – | 3.46 nM | 3.13 nM | 0.0022 nM | – | IC50 [1, 9]: 66.7 nM; IC50 ([2]; replicon 1B): 0.003 nM
12 | COC(=O)NC(C(=O)N1CCC[C@H]1c1ncc(-c2ccc3c(c2)cc2n3C(c3ccc(C4CC4)s3)Oc3cc(-c4cnc([C@@H]5CCCN5C(=O)[C@@H](NC(=O)OC)C(C)C)[nH]4)cc(F)c3-2)[nH]1)C1C[C@H](C)O[C@@H](C)C1 (single isomer, unassigned) [Compound 403] | – | – | – | 0.007 nM | 0.0067 nM | – | 0.0033 nM | IC50 [1, 11]: 0.0703 nM; IC50 ([5]; Hepatitis C virus, replicon 1A): 0.0025 nM
13 | COCCc1ccc(C2Oc3cc(-c4cnc([C@@H]5CCCN5C(=O)[C@@H](NC(=O)OC)C(C)C)[nH]4)cc(F)c3-c3cc4cc(-c5cnc([C@@H]6CCCN6C(=O)[C@@H](NC(=O)OC)C(C)C)[nH]5)ccc4n32)s1 (single isomer, unassigned) [Compound 82] | – | – | – | – | – | 0.0011 nM | – | IC50 [1, 15]: 0.26 nM; IC50 ([2]; replicon 1B): 0.0013 nM; IC50 ([3]; replicon 2B, read-out: 2B IC50): 0.15 nM; IC50 [4, 16]: 0.014 nM
14 | COC(=O)N[C@H](C(=O)N1CCC[C@H]1c1ncc(-c2cc(F)c3c(c2)OC(c2cc4ccccc4s2)n2c-3cc3cc(-c4cnc([C@@H]5C[C@H]6C[C@H]6N5C(=O)[C@@H](NC(=O)OC)C(C)C)[nH]4)ccc32)[nH]1)C(C)C (single isomer, unassigned) [Compound 615] | 1.08 nM | 0.045 nM | 0.0023 nM | – | – | – | – | IC50 [1, 12]: 0.844 nM; IC50 [2, 13]: 0.0019 nM
15 | COC(=O)N[C@H](C(=O)N1CCC[C@H]1c1ncc(-c2cc(F)c3c(c2)OC(c2cc4c(s2)CCC4)n2c-3cc3cc(-c4cnc([C@@H]5C[C@H]6C[C@H]6N5C(=O)[C@@H](NC(=O)OC)C5C[C@@H](C)O[C@@H](C)C5)[nH]4)ccc32)[nH]1)C(C)C (single isomer, unassigned) [Compound 551] | 0.0847 nM | 0.0167 nM | 0.00629 nM | – | – | – | – | IC50 [1, 6]: 0.172 nM; IC50 ([2]; HCV replicon 1B): 0.00791 nM
16 | COC(=O)N[C@H](C(=O)N1CCC[C@H]1c1ncc(-c2cc(F)c3c(c2)OC(c2cc(C4CC4)cs2)n2c-3cc3cc(-c4cnc([C@@H]5CCCN5C(=O)[C@@H](NC(=O)OC)C(C)C)[nH]4)ccc32)[nH]1)C(C)C (single isomer, unassigned) [Compound 23] | – | – | – | 0.78 nM | 0.24 nM | – | 0.0039 nM | IC50 [1, 9]: 1.75 nM; IC50 ([5]; Hepatitis C virus, replicon 1A): 0.0032 nM
17 | COC(=O)N[C@H](C(=O)N1CCC[C@@H]1c1cnc(-c2cc(F)c3c(c2)OC(c2ccc(C4(O)CC4)s2)n2c-3cc3cc(-c4ncc([C@@H]5CCCN5C(=O)[C@@H](NC(=O)OC)C(C)C)[nH]4)ccc32)[nH]1)C(C)C (stereo partly shown) [Compound 61] | – | – | – | – | – | 0.0011 nM | – | IC50 [1, 15]: 0.22 nM; IC50 ([2]; replicon 1B): 0.0011 nM; IC50 ([3]; replicon 2B, read-out: 2B IC50): 0.012 nM; IC50 [4, 16]: 0.014 nM
18 | CCc1ccc(C2Oc3cc(-c4cnc([C@@H]5CCCN5C(=O)[C@@H](NC(=O)OC)C(C)C)[nH]4)cc(C)c3-c3cc4cc(-c5cnc([C@@H]6CCCN6C(=O)C(NC(=O)OC)C6C[C@@H](C)O[C@@H](C)C6)[nH]5)ccc4n32)s1 (single isomer, unassigned) [Compound 543] | 0.0111 nM | 0.0394 nM | – | – | – | – | – | IC50 [1, 12]: 0.311 nM; IC50 [2, 13]: 0.00846 nM; IC50 [5, 14]: 0.00543 nM
19 | COC(=O)N[C@H](C(=O)N1CCC[C@H]1c1ncc(-c2cc(F)c3c(c2)OC(c2ccc(C(C)(C)O)s2)n2c-3cc3cc(-c4cnc([C@@H]5CCCN5C(=O)[C@@H](NC(=O)OC)C(C)C)[nH]4)ccc32)[nH]1)C(C)C (single isomer, unassigned) [Compound 84] | – | – | – | 0.012 nM | 0.012 nM | 0.0033 nM | – | IC50 [1, 11]: 0.5 nM; IC50 ([2]; replicon 1B): 0.0025 nM
20 | COC(=O)N[C@H](C(=O)N1CCC[C@H]1c1ncc(-c2cc(F)c3c(c2)OC(c2ccc(CC(C)C)s2)n2c-3cc3cc(-c4cnc([C@@H]5CCCN5C(=O)[C@@H](NC(=O)OC)C(C)C)[nH]4)ccc32)[nH]1)C(C)C (single isomer, unassigned) [Compound 520] | 0.593 nM | 0.0828 nM | 0.00947 nM | – | – | – | – | IC50 [1, 12]: 1.91 nM; IC50 [2, 13]: 0.00924 nM
